Reference: US20250025439A1, “DERIVATIVES OF NIFUROXAZIDE FOR USE IN THE TREATMENT OF MITOCHONDRIAL DISORDERS AND NEURODEGENERATIVE DISEASES” (priority 2021, published 2025)

How the values were obtained:
[1] = target: T1, ARF GTPase-activating protein GIT2 (Homo sapiens, UniProt Q14161); experiment: Affinity chromatography with NFX-beads and mass spectrometry; type: binding; details: spectral counts, NFX coupled beads vs beads alone, human fibroblast extracts
T1 construct: Protein extracts from human fibroblasts were incubated with magnetic beads; endogenous in cells; host or cells: human fibroblast lysate
T1 sequence (Q14161 1-759): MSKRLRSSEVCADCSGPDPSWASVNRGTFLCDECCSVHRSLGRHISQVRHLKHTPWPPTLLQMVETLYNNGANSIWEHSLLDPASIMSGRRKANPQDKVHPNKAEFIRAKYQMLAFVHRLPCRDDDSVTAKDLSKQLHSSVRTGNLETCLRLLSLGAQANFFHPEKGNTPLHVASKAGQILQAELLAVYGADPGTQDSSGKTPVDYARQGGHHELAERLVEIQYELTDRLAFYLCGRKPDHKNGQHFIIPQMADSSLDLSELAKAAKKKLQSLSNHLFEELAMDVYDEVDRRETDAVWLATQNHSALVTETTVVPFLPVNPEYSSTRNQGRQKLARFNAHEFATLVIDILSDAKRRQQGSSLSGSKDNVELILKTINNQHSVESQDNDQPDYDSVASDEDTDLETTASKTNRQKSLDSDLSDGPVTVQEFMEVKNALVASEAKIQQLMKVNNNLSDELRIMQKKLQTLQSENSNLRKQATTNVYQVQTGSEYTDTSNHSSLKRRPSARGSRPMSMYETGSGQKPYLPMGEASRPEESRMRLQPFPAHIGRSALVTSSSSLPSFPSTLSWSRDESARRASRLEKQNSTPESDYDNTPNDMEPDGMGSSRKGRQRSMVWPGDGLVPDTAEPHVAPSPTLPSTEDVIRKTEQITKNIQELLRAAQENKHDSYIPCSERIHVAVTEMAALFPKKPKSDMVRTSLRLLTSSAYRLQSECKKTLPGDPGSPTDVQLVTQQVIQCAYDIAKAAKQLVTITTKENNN
Method: (§1) Fibroblasts were trypsinized and washed with PBS 1× then incubated in lysis buffer on ice during 20 minutes (Lysis buffer: Tris-HCl pH 7.5 50 mM, EDTA 2 mM, Triton X-100 0.1% supplemented with anti-protease and anti-phosphatase (Complete-Mini™—Roche). After centrifugation 15 minutes, 13 000 rpm at 4° C., supernatant was conserved and the protein concentration was determined using the Pierce BCA assay kit (Thermo Fisher Scientific).
(§2) 10 μL of magnetic beads and NFX-beads were washed three times in Bead buffer before to be resuspended 100 μL of Bead buffer (Bead buffer: Tris-HCl pH 7.5 50 mM, NaCl 150 mM, Triton X-100 0.1%, supplemented with anti-protease and anti-phosphatase (Complete-Mini™—Roche)) thanks to a magnetic rack (DynaMag-2 Ref 12321D Life Technologies). 800 μg of proteins were mixed with 100 μL of diluted beads and the final volume was set to 800 μL with Bead buffer. The proteins and the beads were incubated 30 minutes with rotation in a cold room. Using a magnetic rack, the beads were separated from the protein extract and washed three time with Bead buffer before to be resuspended in 75 μL of Laemmli2X. Laemmli with beads was put 5 minutes at 95° C. to eluate the proteins and the beads were discarded using a magnetic rack. 35 μL of the eluted proteins were subjected to SDS-PAGE and silver coloration (ProteoSilver™ Silver Stain Kit—Sigma Aldrich). Bands of interest were extracted from the gel and subjected to mass spectrometry.
(§3) Mass spectrometric identification and quantification of the pulled down proteins were performed as previously described (Shrivastava et al., EMBO, 2019, 38:e99871). The raw data were cleaned using the following pathway. First, only the proteins found to interact with the NFX coupled beads in the three replicates were kept for further analysis. […] The final proteins were then classified based on the fold chance and the p-value.
(§4) Identification of the NFX intracellular targets is a crucial step in understanding its mechanisms of action and to be able to improve its efficiency on a rational basis. To purify NFX-binding proteins, affinity chromatography purification was performed using magnetic beads. Protein extracts from human fibroblasts were incubated with magnetic beads alone or to which NFX has been covalently coupled (Scheme 1). Eluted fractions were subjected to SDS-PAGE electrophoresis and silver staining (FIG. 9A). The pattern was clearly different between eluted proteins from NFX-beads compared to those eluted form beads alone with 13 bands either appeared or were of a higher intensity with the NFX-beads (FIG. 9B). Excised bands were subjected to proteolytic digestion and mass spectrometry.

[2] = target: T2, Pleckstrin homology-like domain family B member 2 (PHLDB2) (Homo sapiens, UniProt Q86SQ0); experiment: as above; type: binding; details: spectral counts, NFX coupled beads vs beads alone, human fibroblast extracts
T2 construct: Protein extracts from human fibroblasts were incubated with magnetic beads; endogenous in cells; host or cells: human fibroblast lysate
T2 sequence (Q86SQ0 1-1253): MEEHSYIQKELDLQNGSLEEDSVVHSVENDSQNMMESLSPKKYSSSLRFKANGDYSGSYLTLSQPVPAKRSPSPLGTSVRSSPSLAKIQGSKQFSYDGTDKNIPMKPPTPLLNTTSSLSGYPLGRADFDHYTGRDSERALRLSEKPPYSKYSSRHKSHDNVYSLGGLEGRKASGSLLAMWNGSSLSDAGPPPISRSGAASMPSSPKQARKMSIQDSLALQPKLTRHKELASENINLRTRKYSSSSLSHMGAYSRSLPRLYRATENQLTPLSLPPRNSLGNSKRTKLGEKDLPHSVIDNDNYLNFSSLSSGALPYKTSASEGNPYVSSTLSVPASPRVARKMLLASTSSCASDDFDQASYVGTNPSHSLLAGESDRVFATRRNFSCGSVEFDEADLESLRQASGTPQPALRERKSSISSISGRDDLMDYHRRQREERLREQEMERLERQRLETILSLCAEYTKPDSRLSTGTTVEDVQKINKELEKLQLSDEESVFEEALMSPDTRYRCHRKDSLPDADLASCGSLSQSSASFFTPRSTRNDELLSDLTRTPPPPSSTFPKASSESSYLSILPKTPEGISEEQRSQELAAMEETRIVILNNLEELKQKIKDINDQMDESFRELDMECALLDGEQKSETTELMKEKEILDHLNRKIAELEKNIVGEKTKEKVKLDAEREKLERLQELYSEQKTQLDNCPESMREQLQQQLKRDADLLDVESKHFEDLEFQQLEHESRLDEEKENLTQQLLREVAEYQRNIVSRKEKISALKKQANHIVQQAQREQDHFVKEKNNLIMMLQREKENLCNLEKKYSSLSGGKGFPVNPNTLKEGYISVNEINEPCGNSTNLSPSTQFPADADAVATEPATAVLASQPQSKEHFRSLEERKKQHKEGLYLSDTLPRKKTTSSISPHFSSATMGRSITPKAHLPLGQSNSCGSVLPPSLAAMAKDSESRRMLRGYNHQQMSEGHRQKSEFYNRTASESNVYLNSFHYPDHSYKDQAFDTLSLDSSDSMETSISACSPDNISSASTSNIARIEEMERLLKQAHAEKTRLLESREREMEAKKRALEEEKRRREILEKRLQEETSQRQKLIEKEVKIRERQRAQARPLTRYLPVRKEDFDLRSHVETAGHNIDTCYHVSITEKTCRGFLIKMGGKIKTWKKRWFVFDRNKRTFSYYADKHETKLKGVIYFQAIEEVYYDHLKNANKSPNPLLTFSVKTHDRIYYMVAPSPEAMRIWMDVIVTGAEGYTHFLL
Method: as §1, §2, §3, §4

O=C(N/N=C/c1ccc([N+](=O)[O-])o1)c1ccc(O)cc1 [NFX, (E)-4-hydroxy-N′-((5-nitrofuran-2-yl)methylene)benzohydrazide]
Fold change [1]: 433.33
Fold change [2]: 91.67
